Experimental data published in BigSolDB 2.1.

In the case of `O=S(=O)([O-])NC1CCCCC1.[Na+]`, the solubility (mole fraction) (in DMF, 283.15 K) is reported as 3.1e-05, the solubility (mole fraction) (in DMF, 288.14 K) is reported as 0.000121 and the solubility (mole fraction) (in DMF, 293.17 K) is reported as 0.000214. The solubility (mole fraction) (in DMF, 298.15 K) was 0.000364, the solubility (mole fraction) (in DMF, 303.13 K) was 0.00051 and the solubility (mole fraction) (in DMF, 308.15 K) was 0.000724. It also gave a solubility (mole fraction) (in DMF, 313.14 K) of 0.00095, a solubility (mole fraction) (in DMF, 318.13 K) of 0.00119 and a solubility (mole fraction) (in DMF, 323.17 K) of 0.00141. It also gave a solubility (mole fraction) (in DMSO, 293.13 K) of 0.000997, a solubility (mole fraction) (in DMSO, 298.15 K) of 0.00226 and a solubility (mole fraction) (in DMSO, 303.14 K) of 0.00433. For the same compound, the solubility (mole fraction) (in DMSO, 308.15 K) was 0.00792, the solubility (mole fraction) (in DMSO, 313.16 K) was 0.0117 and the solubility (mole fraction) (in DMSO, 318.15 K) was 0.0154. For the same compound, the solubility (mole fraction) (in DMSO, 323.2 K) was 0.0183, the solubility (mole fraction) (in DMSO, 328.15 K) was 0.0198 and the solubility (mole fraction) (in DMSO, 333.17 K) was 0.0203. It also gave a solubility (mole fraction) (in acetic acid, 293.15 K) of 0.0037, a solubility (mole fraction) (in acetic acid, 298.14 K) of 0.00501 and a solubility (mole fraction) (in acetic acid, 303.15 K) of 0.00649. It also gave a solubility (mole fraction) (in acetic acid, 308.17 K) of 0.00753, a solubility (mole fraction) (in acetic acid, 313.15 K) of 0.00877 and a solubility (mole fraction) (in acetic acid, 318.13 K) of 0.0103. It also gave a solubility (mole fraction) (in acetic acid, 323.15 K) of 0.0115, a solubility (mole fraction) (in acetic acid, 328.17 K) of 0.0128 and a solubility (mole fraction) (in acetic acid, 333.2 K) of 0.0134. It also gave a solubility (mole fraction) (in formamide, 283.13 K) of 0.0319, a solubility (mole fraction) (in formamide, 288.15 K) of 0.0391 and a solubility (mole fraction) (in formamide, 293.16 K) of 0.0438. The solubility (mole fraction) (in formamide, 298.17 K) was 0.0472, the solubility (mole fraction) (in formamide, 303.15 K) was 0.0506 and the solubility (mole fraction) (in formamide, 308.14 K) was 0.0526. For the same compound, the solubility (mole fraction) (in formamide, 313.15 K) was 0.0543, the solubility (mole fraction) (in formamide, 318.12 K) was 0.0554 and the solubility (mole fraction) (in formamide, 323.15 K) was 0.0567. For the same compound, the solubility (mole fraction) (in formic acid, 283.13 K) was 0.016, the solubility (mole fraction) (in formic acid, 288.13 K) was 0.0179 and the solubility (mole fraction) (in formic acid, 293.1 K) was 0.0209. The solubility (mole fraction) (in formic acid, 299.12 K) was 0.0239, the solubility (mole fraction) (in formic acid, 303.15 K) was 0.0275 and the solubility (mole fraction) (in formic acid, 308.17 K) was 0.0319. The solubility (mole fraction) (in formic acid, 313.13 K) was 0.037, the solubility (mole fraction) (in formic acid, 318.2 K) was 0.0424 and the solubility (mole fraction) (in formic acid, 323.15 K) was 0.0487. It also gave a solubility (mole fraction) (in methanol, 283.1 K) of 0.00271, a solubility (mole fraction) (in methanol, 288.15 K) of 0.00295 and a solubility (mole fraction) (in methanol, 293.24 K) of 0.00314. It also gave a solubility (mole fraction) (in methanol, 298.1 K) of 0.00331, a solubility (mole fraction) (in methanol, 303.15 K) of 0.00352 and a solubility (mole fraction) (in methanol, 308.2 K) of 0.00376. The solubility (mole fraction) (in methanol, 313.19 K) was 0.00405, the solubility (mole fraction) (in methanol, 318.2 K) was 0.00436 and the solubility (mole fraction) (in methanol, 323.15 K) was 0.00467. For the same compound, the solubility (mole fraction) (in water, 283.13 K) was 0.0152, the solubility (mole fraction) (in water, 288.17 K) was 0.0166 and the solubility (mole fraction) (in water, 293.15 K) was 0.018. It also gave a solubility (mole fraction) (in water, 298.14 K) of 0.02, a solubility (mole fraction) (in water, 303.17 K) of 0.0233 and a solubility (mole fraction) (in water, 308.13 K) of 0.0284. For the same compound, the solubility (mole fraction) (in water, 313.15 K) was 0.0363, the solubility (mole fraction) (in water, 318.14 K) was 0.0461 and the solubility (mole fraction) (in water, 323.15 K) was 0.0512.
